Laboratory results: paper PMC4450297, “Screening Active Compounds from Garcinia Species Native to China Reveals Novel Compounds Targeting the STAT/JAK Signaling Pathway” (BioMed Research International, 2015)
Read-outs that look alike come from different tables or passages of the source.

What was measured:
[1] = system: PUMA, NOXA, and CDIP mRNA in NCI-H1650 cells; test: Quantitative real-time PCR of proapoptotic genes; assay type: cell-based, human; details: 24-hour treatment
Description: The primers for PUMA (Cat. Hs00248075_m1), CDIP1 (Cat. Hs00924663_g1), and NOXA (Cat. Hs00560402_m1) for quantitative PCR were all purchased from Invitrogen. Dissociation curves and no-cDNA controls were generated for each primer pair to detect nonspecific amplification. A standard curve was generated for each primer pair as well as for glyceraldehyde-3-phosphate dehydrogenase (GAPDH; using in this case a predeveloped TaqMan assay), to which gene expression levels were normalized by a comparative threshold cycle method. Finally, a ratio was calculated comparing normalized gene expression values in treated versus untreated controls for each sample.
Total RNA was extracted from the NCI-H1650 cell line using the RNeasy kit (Qiagen). cDNA synthesis was performed using Superscript II RNase H– reverse transcriptase (Life Technologies, Bethesda, MD, USA) to transcribe 2 μg of total RNA primed with 1 μL of 500 μg/mL random hexamers. For quantitative real-time PCR analysis, an ABI TaqMan assay (HS00378697) was used in an ABI 7300 system with the following profile: 95°C for 10 min, followed by 40 cycles of 15 s at 95°C and 60 s at 60°C. PUMA, NOXA, and CDIP1 mRNA levels were normalized by comparison to GAPDH RNA levels in the same samples. Each measurement was performed at least in duplicate.

A704 = test: Cell panel screen (CellTiter-Glo); assay type: cell-based, human; details: Homo sapiens, read-out: Percent Inhibition
In short: (§1)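 Steps: seed cells, culture overnight at 37°C; add compound diluted in medium from DMSO stock to 20 μM final; incubate 72 h; add detection reagent for 10 min; read luminescence; compute % inhibition versus vehicle controls.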

BT-474 = test: Cell panel screen (CellTiter-Glo); assay type: cell-based, human; details: Homo sapiens, read-out: Percent Inhibition
In short: as §1

C3A = test: Cell panel screen (CellTiter-Glo); assay type: cell-based, human; details: Homo sapiens, read-out: Percent Inhibition
In short: as §1

C8166 = test: Cell panel screen (CellTiter-Glo); assay type: cell-based, human; details: Homo sapiens, read-out: Percent Inhibition
In short: as §1

CCF-STTG1 = test: Cell panel screen (CellTiter-Glo); assay type: cell-based, human; details: Homo sapiens, read-out: Percent Inhibition
In short: as §1

HCC1569 = test: Cell panel screen (CellTiter-Glo); assay type: cell-based, human; details: Homo sapiens, read-out: Percent Inhibition
In short: as §1

HCC1599 = test: Cell panel screen (CellTiter-Glo); assay type: cell-based, human; details: Homo sapiens, read-out: Percent Inhibition
In short: as §1

HGC-27 = test: Cell panel screen (CellTiter-Glo); assay type: cell-based, human; details: Homo sapiens, read-out: Percent Inhibition
In short: as §1

HPAF-II = test: Cell panel screen (CellTiter-Glo); assay type: cell-based, human; details: Homo sapiens, read-out: Percent Inhibition
In short: as §1

HT-1197 = test: Cell panel screen (CellTiter-Glo); assay type: cell-based, human; details: Homo sapiens, read-out: Percent Inhibition
In short: as §1

J82 = test: Cell panel screen (CellTiter-Glo); assay type: cell-based, human; details: Homo sapiens, read-out: Percent Inhibition
In short: as §1

M059J = test: Cell panel screen (CellTiter-Glo); assay type: cell-based, human; details: Homo sapiens, read-out: Percent Inhibition
In short: as §1

RL95 = test: Cell panel screen (CellTiter-Glo); assay type: cell-based, human; details: Homo sapiens, read-out: Percent Inhibition
In short: as §1

JAK1 = biological target: T1, JAK1 (Homo sapiens, UniProt P23458); test: Microfluidic mobility shift enzyme assay; assay type: biochemical
T1 construct: purchased Carna Bioscience, Inc. (Japan)
Method: (§2) The microfluidic mobility shift enzyme assay was performed in an on-chip incubation mode on a Caliper LabChip 2000 Drug Discovery System (Caliper Life Sciences, Hopkinton, MA). The extent of inhibition by the compounds is measured directly by quantifying the level of both unphosphorylated peptide substrate and phosphorylated product after electrophoretic separation using Caliper's LabChip assay technology. To evaluate the compounds for their target and the mechanism by which the compound affects JAK enzyme activity, the compounds were tested against JAK family kinases (JAK1, JAK2, JAK3, and Tyk2) with the Caliper microfluidic mobility-shift platform. The JAK family kinase enzymes and the FAM-labeled substrates were purchased from Carna Bioscience, Inc. (Japan) and Caliper Bioscience (US), respectively.
(§3) For JAK kinase activity measurement, the test compounds were diluted freshly with assay buffer (100 mM HEP ES, 10 mM MgCl2, 1.5 mM betaine, 0.015% Brij, and 25 mM β-glycerophosphate) and added to 384-well plates. FAM-labeled peptide substrate and ATP in assay buffer were added to the wells. After that, JAK enzymes prepared in assay buffer were also added to the wells and mixed to start the reaction. After a period of incubation at room temperature, the reaction was stopped by stop solution (500 mM EDTA). Finally, the plate was put on a Caliper LabChip 2000 system and a droplet of the reaction mixture was applied for electrophoretic separation in the chips of the machine. The enzyme conversion data then was read out for analysis.

Tyk2 = biological target: T2, Tyk2 (Homo sapiens, UniProt P29597); test: Microfluidic mobility shift enzyme assay; assay type: biochemical
T2 construct: purchased Carna Bioscience, Inc. (Japan)
Method: as §2, §3

[2] = A704 (Kidney), 20 micromolar, 72 hrs
[3] = BT-474 (Breast), 20 micromolar, 72 hrs
[4] = C3A (Liver), 20 micromolar, 72 hrs
[5] = C8166 (Leukemia), 20 micromolar, 72 hrs
[6] = CCF-STTG1 (Brain), 20 micromolar, 72 hrs
[7] = HCC1569 (Breast), 20 micromolar, 72 hrs
[8] = HCC1599 (Breast), 20 micromolar, 72 hrs
[9] = HGC-27 (Stomach), 20 micromolar, 72 hrs
[10] = HPAF-II (Pancreas), 20 micromolar, 72 hrs
[11] = HT1197, HT-1197 (Urinary bladder), 20 micromolar, 72 hrs
[12] = J82 (Urinary bladder), 20 micromolar, 72 hrs
[13] = M059J (Brain), 20 micromolar, 72 hrs
[14] = RL95 (Uterus), 20 micromolar, 72 hrs

T2 sequence (P29597 whole entry): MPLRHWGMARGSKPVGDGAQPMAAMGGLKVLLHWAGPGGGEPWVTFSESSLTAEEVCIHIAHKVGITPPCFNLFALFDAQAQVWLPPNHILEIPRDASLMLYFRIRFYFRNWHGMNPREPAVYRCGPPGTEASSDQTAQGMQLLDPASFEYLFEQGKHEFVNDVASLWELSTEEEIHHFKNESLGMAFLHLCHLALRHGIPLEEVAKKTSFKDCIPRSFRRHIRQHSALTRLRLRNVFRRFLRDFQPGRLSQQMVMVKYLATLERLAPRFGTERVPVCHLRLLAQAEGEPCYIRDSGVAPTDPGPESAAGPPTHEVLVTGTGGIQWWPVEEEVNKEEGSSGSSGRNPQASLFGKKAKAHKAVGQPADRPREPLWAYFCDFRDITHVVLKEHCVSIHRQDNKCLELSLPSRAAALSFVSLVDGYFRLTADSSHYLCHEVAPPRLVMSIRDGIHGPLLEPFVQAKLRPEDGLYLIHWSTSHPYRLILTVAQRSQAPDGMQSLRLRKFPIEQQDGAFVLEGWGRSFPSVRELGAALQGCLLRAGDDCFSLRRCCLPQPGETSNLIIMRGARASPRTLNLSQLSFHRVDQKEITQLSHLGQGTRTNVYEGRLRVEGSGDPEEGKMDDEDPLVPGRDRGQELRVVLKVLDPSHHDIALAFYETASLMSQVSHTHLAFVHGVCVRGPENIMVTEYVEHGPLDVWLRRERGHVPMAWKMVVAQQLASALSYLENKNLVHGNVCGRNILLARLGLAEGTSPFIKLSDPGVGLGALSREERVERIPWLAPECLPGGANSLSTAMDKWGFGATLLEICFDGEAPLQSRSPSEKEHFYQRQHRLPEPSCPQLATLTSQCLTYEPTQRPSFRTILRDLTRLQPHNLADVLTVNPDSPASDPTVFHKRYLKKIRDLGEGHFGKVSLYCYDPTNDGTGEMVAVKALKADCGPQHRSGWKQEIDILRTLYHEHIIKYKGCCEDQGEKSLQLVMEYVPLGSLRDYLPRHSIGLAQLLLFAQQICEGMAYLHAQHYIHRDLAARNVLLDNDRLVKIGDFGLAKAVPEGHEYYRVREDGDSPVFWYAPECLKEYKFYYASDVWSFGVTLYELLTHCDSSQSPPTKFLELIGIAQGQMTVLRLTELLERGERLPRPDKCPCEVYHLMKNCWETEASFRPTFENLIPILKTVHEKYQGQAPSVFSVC
T1 sequence (P23458 whole entry): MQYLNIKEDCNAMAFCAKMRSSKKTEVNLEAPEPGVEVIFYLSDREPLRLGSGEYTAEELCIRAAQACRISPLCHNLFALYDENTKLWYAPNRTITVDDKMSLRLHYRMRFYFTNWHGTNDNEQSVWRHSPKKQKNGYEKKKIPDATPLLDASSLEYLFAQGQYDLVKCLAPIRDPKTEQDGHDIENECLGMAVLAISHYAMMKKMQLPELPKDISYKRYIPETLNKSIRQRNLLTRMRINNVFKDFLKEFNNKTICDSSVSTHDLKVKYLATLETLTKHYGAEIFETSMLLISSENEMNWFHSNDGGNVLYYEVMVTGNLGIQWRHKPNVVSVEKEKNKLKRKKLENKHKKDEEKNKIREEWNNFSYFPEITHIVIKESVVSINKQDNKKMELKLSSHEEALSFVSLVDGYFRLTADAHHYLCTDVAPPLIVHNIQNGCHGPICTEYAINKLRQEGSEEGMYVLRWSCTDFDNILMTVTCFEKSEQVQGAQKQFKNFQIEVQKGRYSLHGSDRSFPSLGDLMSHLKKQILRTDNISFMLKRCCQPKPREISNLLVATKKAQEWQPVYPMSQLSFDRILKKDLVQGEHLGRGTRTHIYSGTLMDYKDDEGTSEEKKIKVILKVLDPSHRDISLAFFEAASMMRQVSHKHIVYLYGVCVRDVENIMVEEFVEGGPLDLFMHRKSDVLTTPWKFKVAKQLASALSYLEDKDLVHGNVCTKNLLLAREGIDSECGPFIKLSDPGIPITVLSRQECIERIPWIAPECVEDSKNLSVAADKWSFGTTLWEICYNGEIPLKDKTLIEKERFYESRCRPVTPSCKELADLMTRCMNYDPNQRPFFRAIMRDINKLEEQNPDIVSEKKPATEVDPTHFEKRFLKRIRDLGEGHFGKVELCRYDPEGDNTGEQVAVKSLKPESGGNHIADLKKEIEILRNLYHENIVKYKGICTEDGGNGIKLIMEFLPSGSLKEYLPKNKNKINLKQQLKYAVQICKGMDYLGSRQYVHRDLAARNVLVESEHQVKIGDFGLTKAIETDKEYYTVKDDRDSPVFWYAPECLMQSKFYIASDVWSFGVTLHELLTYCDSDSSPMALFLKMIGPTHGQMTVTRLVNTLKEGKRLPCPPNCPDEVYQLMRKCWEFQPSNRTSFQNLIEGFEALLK

SMILES	induction of CIDP mRNA [1]	induction of NOXA mRNA [1]	induction of PUMA mRNA [1]	inhibition at 20 µM (A704; [2])	inhibition at 20 µM (BT-474; [3])	inhibition at 20 µM (C3A; [4])	inhibition at 20 µM (C8166; [5])	inhibition at 20 µM (CCF-STTG1; [6])	inhibition at 20 µM (HCC1569; [7])	inhibition at 20 µM (HCC1599; [8])	inhibition at 20 µM (HGC-27; [9])	inhibition at 20 µM (HPAF-II; [10])	inhibition at 20 µM (HT-1197; [11])	inhibition at 20 µM (J82; [12])	inhibition at 20 µM (M059J; [13])	inhibition at 20 µM (RL95; [14])	inhibition of JAK1 kinase activity (in words) (JAK1)	IC50 (JAK1; JAK1 enzyme, read-out: IC50)	inhibition of Tyk2 kinase activity (in words) (Tyk2)	IC50 (Tyk2; Tyk2 enzyme, read-out: IC50)	also measured
CC(C)=CCC/C(C)=C/Cc1c(O)c(CC=C(C)C)c2c(c1O)C(=O)C1=C[C@@H]3C[C@H]4C(C)(C)O[C@@](C/C=C(\C)C=O)(C3=O)[C@@]14O2 [GB49]	no effect	no effect	no effect	98%	99%	97%	99%	99%	99%	99%	98%	98%	96%	98%	99%	99%					
CC(C)=CCC[C@@]1(C)C=Cc2c(O)c3c(c(CCC(C)(C)O)c2O1)O[C@]12C(=C[C@@H]4C[C@H]1C(C)(C)O[C@@]2(C/C=C(/C)C(=O)O)C4=O)C3=O [GB39, 33-hydroxyepigambogic acid]	3 fold	greater than 5 fold	3 fold	99%	100%	99%	100%	100%	100%	100%	100%	100%	100%	100%	100%	100%	minor inhibitory effects	12.2 ± 0.3 µM	minor inhibitory effects	13 ± 1.6 µM	
CC(C)=CCC/C(C)=C/Cc1c(O)c(CC=C(C)C)c2c(c1O)C(=O)C1=C[C@@H]3C[C@H]4C(C)(C)O[C@@](C/C=C(\C)C(=O)O)(C3=O)[C@@]14O2 [GB63]	no effect	no effect	no effect	99%	99%	99%	100%	99%	99%	99%	99%	99%	99%	99%	99%	99%					
CC(C)=CCC/C(C)=C/Cc1c(O)c(CC=C(C)C)c2c(c1O)C(=O)C1=C[C@@H]3C[C@H]4C(C)(C)O[C@@](CC=C(C)C)(C3=O)[C@@]14O2 [GB32]	no effect	no effect	no effect														no effect		no effect		IC50 (JAK1): > 40 µM; IC50 (Tyk2): > 40 µM; inhibition at 20 µM (A704; A704, 72 h): 99%; inhibition at 20 µM (BT-474; BT-474, 72 h): 99%; inhibition at 20 µM (C3A; C3A, 72 h): 99%; inhibition at 20 µM (C8166; C8166, 72 h): 99%; inhibition at 20 µM (CCF-STTG1; CCF-STTG1, 72 h): 99%; inhibition at 20 µM (HCC1569; HCC1569, 72 h): 99%; inhibition at 20 µM (HCC1599; HCC1599, 72 h): 100%; inhibition at 20 µM (HGC-27; HGC-27, 72 h): 99%; inhibition at 20 µM (HPAF-II; HPAF-II, 72 h): 99%; inhibition at 20 µM (HT-1197; HT1197, 72 h): 99%; inhibition at 20 µM (J82; J82, 72 h): 99%; inhibition at 20 µM (M059J; M059J, 72 h): 99%; inhibition at 20 µM (RL95; 72 h): 99%
CC(C)=CCC[C@@]1(C)C=Cc2c(O)c3c(c(C/C=C(\C)CO)c2O1)O[C@]12C(=C[C@@H]4C[C@H]1C(C)(C)O[C@@]2(C/C=C(/C)C(=O)O)C4=O)C3=O [GB40, 35-hydroxyepigambogic acid]	2 fold	greater than 5 fold	2 fold	98%	99%	98%	99%	99%	99%	99%	99%	99%	99%	99%	99%	99%	minor inhibitory effects	14.2 ± 0.4 µM	minor inhibitory effects	12.9 ± 0.9 µM	
